Measurements as given in ChEMBL document CHEMBL4507291 (2021).

Assays:
[1] = target: D(2) dopamine receptor (Homo sapiens) (UniProt P14416); details: Compound concentration 10.0 uM
[2] = target: Leucine-rich repeat serine/threonine-protein kinase 2 (Homo sapiens, UniProt Q5S007); details: Compound concentration 1000.0 nM
[3] = target: Serine/threonine-protein kinase PLK2 (Homo sapiens) (UniProt Q9NYY3); assay: PLK2 Kinase screen; details: Compound concentration 1.0 uM
[4] = target: T1, MAP kinase-activated protein kinase 5 (Homo sapiens) (UniProt Q8IW41); assay: MAPKAPK5 (PRAK) Kinase screen; details: Compound concentration 1.0 uM
T1 sequence (whole entry): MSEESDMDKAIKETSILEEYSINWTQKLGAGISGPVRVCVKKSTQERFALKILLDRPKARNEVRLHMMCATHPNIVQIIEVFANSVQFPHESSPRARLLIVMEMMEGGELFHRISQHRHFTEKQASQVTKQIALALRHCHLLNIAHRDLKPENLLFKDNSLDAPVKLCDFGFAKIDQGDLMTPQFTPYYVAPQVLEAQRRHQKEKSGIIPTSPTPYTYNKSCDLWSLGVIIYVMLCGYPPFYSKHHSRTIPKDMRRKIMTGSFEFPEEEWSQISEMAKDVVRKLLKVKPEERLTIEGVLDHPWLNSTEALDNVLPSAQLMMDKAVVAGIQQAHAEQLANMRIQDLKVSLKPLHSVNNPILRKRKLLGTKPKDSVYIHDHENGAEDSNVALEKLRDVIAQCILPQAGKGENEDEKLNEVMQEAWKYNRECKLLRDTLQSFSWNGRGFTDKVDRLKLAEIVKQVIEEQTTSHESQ

[5] = target: Phosphatidylinositol 3-kinase catalytic subunit type 3 (Homo sapiens) (UniProt Q8NEB9); assay: PIK3C3 (hVPS34) Kinase screen; details: Compound concentration 1.0 uM
Phosphatidylinositol 3-kinase catalytic subunit type 3 (Homo sapiens), sequence (Q8NEB9 whole entry): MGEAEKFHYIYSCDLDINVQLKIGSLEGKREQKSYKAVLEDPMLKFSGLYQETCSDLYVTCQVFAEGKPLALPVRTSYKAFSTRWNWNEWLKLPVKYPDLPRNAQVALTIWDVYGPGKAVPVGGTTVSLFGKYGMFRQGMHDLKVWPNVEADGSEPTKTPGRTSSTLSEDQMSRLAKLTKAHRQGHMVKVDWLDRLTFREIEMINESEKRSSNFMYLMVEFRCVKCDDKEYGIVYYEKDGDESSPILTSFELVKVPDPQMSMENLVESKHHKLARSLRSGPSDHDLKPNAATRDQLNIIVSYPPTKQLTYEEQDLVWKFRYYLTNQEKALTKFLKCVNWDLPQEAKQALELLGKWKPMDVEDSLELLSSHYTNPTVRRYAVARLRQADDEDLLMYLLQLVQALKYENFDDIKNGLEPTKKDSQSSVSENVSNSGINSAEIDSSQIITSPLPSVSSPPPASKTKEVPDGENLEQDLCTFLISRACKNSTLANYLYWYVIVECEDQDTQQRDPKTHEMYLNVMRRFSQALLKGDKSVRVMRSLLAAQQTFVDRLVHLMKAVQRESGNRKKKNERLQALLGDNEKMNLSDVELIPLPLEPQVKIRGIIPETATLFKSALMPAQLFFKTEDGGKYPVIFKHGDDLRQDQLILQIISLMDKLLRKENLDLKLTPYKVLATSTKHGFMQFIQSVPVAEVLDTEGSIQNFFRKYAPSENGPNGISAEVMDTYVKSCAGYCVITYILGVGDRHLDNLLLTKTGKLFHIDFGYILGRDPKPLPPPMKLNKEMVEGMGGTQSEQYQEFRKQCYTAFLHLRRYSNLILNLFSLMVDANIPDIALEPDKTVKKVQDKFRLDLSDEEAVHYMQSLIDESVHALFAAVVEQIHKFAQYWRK

[6] = target: T2, Mitogen-activated protein kinase 13 (Homo sapiens) (UniProt O15264); assay: MAPK13 (p38 delta) Kinase screen; details: Compound concentration 1.0 uM
T2 sequence (whole entry): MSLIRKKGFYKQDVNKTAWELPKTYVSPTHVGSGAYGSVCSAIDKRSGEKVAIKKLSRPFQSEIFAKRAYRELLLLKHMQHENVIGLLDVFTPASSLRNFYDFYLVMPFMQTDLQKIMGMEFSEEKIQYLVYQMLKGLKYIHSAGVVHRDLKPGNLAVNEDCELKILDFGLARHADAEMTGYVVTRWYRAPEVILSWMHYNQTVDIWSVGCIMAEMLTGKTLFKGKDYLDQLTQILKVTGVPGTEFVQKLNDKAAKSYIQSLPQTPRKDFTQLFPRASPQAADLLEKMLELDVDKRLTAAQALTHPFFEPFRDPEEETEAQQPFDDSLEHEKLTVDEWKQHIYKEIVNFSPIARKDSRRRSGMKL

[7] = target: Insulin receptor (Homo sapiens) (UniProt P06213); assay: Protein Tyrosine Kinase, Insulin Receptor Eurofins-Panlabs enzyme assay; design: substrate with concentration; details: Compound concentration 10.0 uM
[8] = target: Tyrosine-protein kinase Fyn (Homo sapiens) (UniProt P06241); assay: FYN Kinase screen; details: Compound concentration 1.0 uM
Tyrosine-protein kinase Fyn (Homo sapiens), sequence (P06241 2-537 limits assumed): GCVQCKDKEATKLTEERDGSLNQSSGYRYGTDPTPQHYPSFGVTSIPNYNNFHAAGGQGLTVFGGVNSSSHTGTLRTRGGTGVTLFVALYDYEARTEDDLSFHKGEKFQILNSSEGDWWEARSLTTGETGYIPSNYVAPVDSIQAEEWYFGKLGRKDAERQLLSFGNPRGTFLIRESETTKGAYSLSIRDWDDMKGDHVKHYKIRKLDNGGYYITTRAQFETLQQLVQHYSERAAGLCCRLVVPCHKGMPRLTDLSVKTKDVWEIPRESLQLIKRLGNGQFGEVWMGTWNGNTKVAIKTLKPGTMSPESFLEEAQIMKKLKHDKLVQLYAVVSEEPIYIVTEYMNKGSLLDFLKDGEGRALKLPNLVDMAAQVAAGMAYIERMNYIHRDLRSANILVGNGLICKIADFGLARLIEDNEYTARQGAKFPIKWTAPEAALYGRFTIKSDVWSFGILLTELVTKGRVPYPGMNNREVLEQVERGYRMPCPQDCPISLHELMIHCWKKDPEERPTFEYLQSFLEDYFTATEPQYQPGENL

[9] = target: 5-hydroxytryptamine receptor 2B (Homo sapiens, UniProt P41595); assay: Inhibition of Serotonin (5-Hydroxytryptamine) 5-HT2B at compound concentration of 10.0 uM in the Eurofins-Panlabs radioligand binding assay (Eurofins_assay_271700); design: ligand concentration 1.2 nM, non-specific ligand with concentration 10 uM Serotonin (5-HT), incubation time 60 min, incubation temperature 37 C
[10] = target: RAC-gamma serine/threonine-protein kinase (Homo sapiens) (UniProt Q9Y243); assay: AKT3 (PKB gamma) Kinase screen; details: Compound concentration 1.0 uM
RAC-gamma serine/threonine-protein kinase (Homo sapiens), sequence (Q9Y243 whole entry): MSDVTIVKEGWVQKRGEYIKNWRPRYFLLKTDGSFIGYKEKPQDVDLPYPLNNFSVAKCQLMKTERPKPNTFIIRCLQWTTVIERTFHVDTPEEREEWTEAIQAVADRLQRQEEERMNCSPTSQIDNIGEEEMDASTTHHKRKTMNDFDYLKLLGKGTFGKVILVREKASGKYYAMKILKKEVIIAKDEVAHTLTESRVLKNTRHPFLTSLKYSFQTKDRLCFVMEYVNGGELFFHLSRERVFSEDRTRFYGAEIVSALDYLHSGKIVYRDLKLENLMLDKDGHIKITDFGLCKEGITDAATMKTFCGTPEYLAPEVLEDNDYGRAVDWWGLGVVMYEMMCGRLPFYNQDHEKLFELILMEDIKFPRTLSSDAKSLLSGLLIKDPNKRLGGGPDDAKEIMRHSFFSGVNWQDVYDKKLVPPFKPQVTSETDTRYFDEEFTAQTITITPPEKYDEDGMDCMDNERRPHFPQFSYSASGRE

[11] = target: T3, Homeodomain-interacting protein kinase 4 (Homo sapiens) (UniProt Q8NE63); assay: HIPK4 Kinase screen; details: Compound concentration 1.0 uM
T3 sequence (whole entry): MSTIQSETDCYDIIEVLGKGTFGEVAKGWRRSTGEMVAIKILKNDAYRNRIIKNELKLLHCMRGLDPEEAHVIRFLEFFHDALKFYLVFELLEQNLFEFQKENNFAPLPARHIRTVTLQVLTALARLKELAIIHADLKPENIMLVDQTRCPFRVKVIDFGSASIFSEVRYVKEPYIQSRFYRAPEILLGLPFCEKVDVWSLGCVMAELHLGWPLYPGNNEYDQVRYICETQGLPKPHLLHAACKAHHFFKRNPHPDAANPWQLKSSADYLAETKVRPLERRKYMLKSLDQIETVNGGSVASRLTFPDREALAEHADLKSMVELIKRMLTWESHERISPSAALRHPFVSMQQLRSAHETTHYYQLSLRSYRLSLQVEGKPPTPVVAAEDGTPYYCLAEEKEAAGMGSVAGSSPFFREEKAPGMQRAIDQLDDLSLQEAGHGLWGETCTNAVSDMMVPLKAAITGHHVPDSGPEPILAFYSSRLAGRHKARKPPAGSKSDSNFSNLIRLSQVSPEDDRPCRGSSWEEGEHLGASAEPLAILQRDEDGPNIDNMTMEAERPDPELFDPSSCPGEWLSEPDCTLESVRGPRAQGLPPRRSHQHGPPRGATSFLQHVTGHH

[12] = target: T4, Megakaryocyte-associated tyrosine-protein kinase (Homo sapiens) (UniProt P42679); assay: MATK (HYL) Kinase screen; details: Compound concentration 1.0 uM
T4 sequence (whole entry): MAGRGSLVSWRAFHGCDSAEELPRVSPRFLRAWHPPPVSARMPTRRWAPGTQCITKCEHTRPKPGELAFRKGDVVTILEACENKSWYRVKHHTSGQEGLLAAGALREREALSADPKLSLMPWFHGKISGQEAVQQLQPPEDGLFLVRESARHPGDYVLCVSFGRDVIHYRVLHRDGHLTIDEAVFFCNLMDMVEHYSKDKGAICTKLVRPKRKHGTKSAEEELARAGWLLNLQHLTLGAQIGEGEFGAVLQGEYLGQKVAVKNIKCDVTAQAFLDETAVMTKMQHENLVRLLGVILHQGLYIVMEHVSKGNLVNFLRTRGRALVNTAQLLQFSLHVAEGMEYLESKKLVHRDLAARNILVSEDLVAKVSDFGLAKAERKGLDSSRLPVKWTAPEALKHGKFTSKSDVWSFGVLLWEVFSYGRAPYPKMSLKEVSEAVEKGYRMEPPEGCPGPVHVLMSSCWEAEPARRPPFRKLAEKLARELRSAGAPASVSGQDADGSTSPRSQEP

[13] = target: Tyrosine-protein kinase ABL1 (Homo sapiens) (UniProt P00519); assay: ABL1 Kinase screen; details: Compound concentration 1.0 uM
Tyrosine-protein kinase ABL1 (Homo sapiens), sequence (P00519 whole entry): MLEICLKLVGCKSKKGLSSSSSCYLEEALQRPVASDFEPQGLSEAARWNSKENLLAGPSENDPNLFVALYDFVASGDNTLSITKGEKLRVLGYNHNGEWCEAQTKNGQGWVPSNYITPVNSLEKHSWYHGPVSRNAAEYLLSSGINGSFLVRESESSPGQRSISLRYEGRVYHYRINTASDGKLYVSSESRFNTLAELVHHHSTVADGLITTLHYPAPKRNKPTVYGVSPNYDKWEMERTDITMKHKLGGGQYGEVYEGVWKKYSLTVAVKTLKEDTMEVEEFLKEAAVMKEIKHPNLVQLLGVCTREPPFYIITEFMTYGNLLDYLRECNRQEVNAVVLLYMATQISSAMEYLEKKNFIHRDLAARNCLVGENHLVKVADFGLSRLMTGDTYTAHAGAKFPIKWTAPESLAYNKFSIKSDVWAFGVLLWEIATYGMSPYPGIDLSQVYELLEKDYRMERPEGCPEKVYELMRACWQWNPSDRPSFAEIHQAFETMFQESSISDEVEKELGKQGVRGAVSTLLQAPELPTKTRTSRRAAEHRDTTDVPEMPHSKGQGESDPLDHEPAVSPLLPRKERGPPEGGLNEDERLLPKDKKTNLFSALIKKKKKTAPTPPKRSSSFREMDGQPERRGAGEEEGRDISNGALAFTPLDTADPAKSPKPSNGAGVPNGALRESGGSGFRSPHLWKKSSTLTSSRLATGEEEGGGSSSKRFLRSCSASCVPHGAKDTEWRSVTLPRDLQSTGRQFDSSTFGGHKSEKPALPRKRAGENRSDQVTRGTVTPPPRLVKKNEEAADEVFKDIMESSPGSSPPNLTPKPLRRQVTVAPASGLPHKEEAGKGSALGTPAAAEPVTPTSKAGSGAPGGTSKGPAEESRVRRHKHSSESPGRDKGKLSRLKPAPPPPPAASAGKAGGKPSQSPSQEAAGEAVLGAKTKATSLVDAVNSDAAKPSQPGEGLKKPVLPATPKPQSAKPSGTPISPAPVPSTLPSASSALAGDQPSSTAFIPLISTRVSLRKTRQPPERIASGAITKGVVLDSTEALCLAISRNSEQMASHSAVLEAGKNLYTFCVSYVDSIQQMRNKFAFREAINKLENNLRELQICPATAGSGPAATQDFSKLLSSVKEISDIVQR

[14] = target: Tyrosine-protein kinase JAK2 (Homo sapiens) (UniProt O60674); assay: JAK2 Kinase screen; details: Compound concentration 1.0 uM
Tyrosine-protein kinase JAK2 (Homo sapiens), sequence (O60674 whole entry): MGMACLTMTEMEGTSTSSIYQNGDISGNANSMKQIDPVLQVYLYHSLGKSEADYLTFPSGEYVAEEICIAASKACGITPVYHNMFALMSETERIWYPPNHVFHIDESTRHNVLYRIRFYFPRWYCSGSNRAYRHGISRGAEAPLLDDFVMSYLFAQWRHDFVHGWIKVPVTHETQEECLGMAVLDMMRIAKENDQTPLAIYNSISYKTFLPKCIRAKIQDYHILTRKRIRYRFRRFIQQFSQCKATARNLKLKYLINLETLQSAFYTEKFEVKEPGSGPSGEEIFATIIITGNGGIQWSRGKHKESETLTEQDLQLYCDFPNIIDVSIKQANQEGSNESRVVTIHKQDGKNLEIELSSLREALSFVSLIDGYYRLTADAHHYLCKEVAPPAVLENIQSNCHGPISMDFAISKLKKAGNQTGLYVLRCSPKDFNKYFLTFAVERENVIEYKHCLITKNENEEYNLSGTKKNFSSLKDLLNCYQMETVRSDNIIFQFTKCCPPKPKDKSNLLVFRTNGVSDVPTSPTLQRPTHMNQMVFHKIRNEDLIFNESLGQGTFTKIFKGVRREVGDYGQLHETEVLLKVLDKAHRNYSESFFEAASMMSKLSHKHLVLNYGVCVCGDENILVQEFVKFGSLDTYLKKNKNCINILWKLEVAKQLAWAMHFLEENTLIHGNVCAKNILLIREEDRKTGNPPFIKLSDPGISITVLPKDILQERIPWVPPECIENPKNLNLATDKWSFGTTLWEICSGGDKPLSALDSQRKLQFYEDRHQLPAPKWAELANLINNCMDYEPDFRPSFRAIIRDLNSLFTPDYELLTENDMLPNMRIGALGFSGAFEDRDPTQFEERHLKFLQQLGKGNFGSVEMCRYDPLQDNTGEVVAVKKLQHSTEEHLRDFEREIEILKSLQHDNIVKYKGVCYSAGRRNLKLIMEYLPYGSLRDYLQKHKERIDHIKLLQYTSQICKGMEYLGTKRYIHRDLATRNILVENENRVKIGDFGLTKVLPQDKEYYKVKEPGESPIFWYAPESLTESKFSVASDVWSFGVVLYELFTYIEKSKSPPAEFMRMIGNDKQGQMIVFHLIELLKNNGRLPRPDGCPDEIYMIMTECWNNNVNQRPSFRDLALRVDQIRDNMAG

[15] = target: Dual specificity tyrosine-phosphorylation-regulated kinase 3 (Homo sapiens) (UniProt O43781); assay: DYRK3 Kinase screen; details: Compound concentration 1.0 uM
[16] = target: Phosphatidylinositol 4-phosphate 3-kinase C2 domain-containing subunit alpha (Homo sapiens) (UniProt O00443); assay: PIK3C2A (PI3K-C2 alpha) Kinase screen; details: Compound concentration 1.0 uM
[17] = target: CDK9/cyclin T1 (Homo sapiens) (UniProt O60563+P50750); assay: CDK9/cyclin T1 Kinase screen; format: protein-complex assay; details: Compound concentration 1.0 uM
[18] = target: Calcium/calmodulin-dependent protein kinase kinase 1 (Homo sapiens) (UniProt Q8N5S9); assay: CAMKK1 (CAMKKA) Kinase screen; details: Compound concentration 1.0 uM
[19] = target: Vasopressin V2 receptor (Homo sapiens) (UniProt P30518); assay: Inhibition of Vasopressin V2 at 10 µM in the Eurofins-Panlabs radioligand binding assay (Eurofins_assay_287610); design: ligand concentration 4 nM; details: Compound concentration 10.0 uM
Vasopressin V2 receptor (Homo sapiens), sequence (P30518 whole entry): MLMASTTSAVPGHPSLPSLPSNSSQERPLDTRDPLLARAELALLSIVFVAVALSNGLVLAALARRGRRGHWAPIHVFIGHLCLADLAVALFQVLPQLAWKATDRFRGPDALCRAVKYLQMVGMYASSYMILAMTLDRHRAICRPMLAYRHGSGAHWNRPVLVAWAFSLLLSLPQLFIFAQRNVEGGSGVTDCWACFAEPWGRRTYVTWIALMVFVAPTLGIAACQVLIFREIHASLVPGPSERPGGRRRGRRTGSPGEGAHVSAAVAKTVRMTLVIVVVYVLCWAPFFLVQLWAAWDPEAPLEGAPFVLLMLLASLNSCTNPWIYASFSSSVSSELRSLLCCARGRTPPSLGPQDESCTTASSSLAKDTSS

D(2) dopamine receptor (Homo sapiens), sequence (P14416 whole entry): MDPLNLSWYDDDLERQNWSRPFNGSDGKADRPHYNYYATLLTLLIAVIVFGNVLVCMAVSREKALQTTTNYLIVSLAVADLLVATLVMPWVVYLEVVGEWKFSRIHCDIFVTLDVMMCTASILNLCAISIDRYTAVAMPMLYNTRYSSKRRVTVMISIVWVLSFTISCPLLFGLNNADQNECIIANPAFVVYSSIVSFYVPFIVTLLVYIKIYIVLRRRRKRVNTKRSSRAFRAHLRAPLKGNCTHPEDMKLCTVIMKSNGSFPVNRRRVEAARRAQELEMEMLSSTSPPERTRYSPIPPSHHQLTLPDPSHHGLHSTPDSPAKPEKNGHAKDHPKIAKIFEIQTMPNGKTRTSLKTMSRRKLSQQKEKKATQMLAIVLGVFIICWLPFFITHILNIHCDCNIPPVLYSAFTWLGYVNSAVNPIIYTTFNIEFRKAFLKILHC

SMILES | inhibition [1] [%] | residual activity [2] [%] | inhibition [3] [%] | inhibition [4] [%] | inhibition [5] [%] | inhibition [6] [%] | inhibition [7] [%] | inhibition [8] [%] | Ki [9] [nM] | inhibition [10] [%] | inhibition [11] [%] | inhibition [12] [%] | inhibition [13] [%] | inhibition [14] [%] | inhibition [15] [%] | inhibition [16] [%] | inhibition [17] [%] | inhibition [18] [%] | inhibition [19] [%]
C[C@@H]1CN(c2cc(-c3nn(C)c4ccc(OC5(C)CC5)cc34)ncn2)C[C@H](C)O1 [MLi-2-NC] | -0.18 | 22 | – | – | – | – | – | – | – | – | – | – | – | – | – | – | – | – | –
C[C@@H]1CN(c2cc(-c3n[nH]c4ccc(OC5(C)CC5)cc34)ncn2)C[C@H](C)O1 [MLi-2] | – | – | 12.7 | 14.2 | 19.4 | 4.25 | 9 | 11.2 | 750 | 7.75 | 6.2 | 3.28 | 1.09 | 5.78 | 2.54 | -0.741 | 11.3 | 12.6 | 9
